Data as given in the supplement of paper PMC10307832.

Key:
Assay in all cases: relative viability (nuclei count vs DMSO), 5 days (fraction); higher = more cells survive
[1] = system: HOP-62
Summary of the method: (§1)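 Relative viability is defined as nuclei in treated wells over nuclei in vehicle wells. Duplicate plates were run and medians reported. Lung cancer cell lines in 1536-well plates were dosed by pin tool one day after seeding, with one drug or with a fixed anchor-drug dose plus five library-drug doses (not always all listed) in √10 steps, and nuclei were counted after 5 days.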

[2] = system: LCLC-103H
Summary of the method: as §1

[3] = system: LOU-NH91
Summary of the method: as §1

[4] = system: NCI-H2126
Summary of the method: as §1

[5] = system: NCI-H460
Summary of the method: as §1

[6] = system: NCI-H520
Summary of the method: as §1

[7] = system: NCI-H2170
Summary of the method: as §1

[8] = system: NCI-H727
Summary of the method: as §1

[9] = system: EMC-BAC-2
Summary of the method: as §1

[10] = system: NCI-H650
Summary of the method: as §1

[11] = system: NCI-H1437
Summary of the method: as §1

[12] = system: ChaGo-K-1
Summary of the method: as §1

[13] = system: NCI-H23
Summary of the method: as §1

[14] = system: NCI-H1793
Summary of the method: as §1

[15] = system: NCI-H2009
Summary of the method: as §1

[16] = system: NCI-H647
Summary of the method: as §1

[17] = system: SW 1573
Summary of the method: as §1

[18] = system: NCI-H441
Summary of the method: as §1

[19] = system: NCI-H2347
Summary of the method: as §1

[20] = system: EPLC-272H
Summary of the method: as §1

[21] = system: NCI-H2023
Summary of the method: as §1

[22] = system: HCC-44
Summary of the method: as §1

[23] = system: NCI-H2405
Summary of the method: as §1

O=c1[nH]c2ccccc2n1C1CCN(CCCC(c2ccc(F)cc2)c2ccc(F)cc2)CC1 [Pimozide] + Nc1ncn([C@H]2C[C@H](O)[C@@H](CO)O2)c(=O)n1 [Decitabine] (partner 2 µM)
relative viability ([1]; first compound 0.08 µM): 0.231
relative viability ([1]; first compound 0.253 µM): 0.228
relative viability ([1]; first compound 2.53 µM): 0.245
relative viability ([1]; first compound 8 µM): 0.244
relative viability ([2]; first compound 0.08 µM): 0.765
relative viability ([2]; first compound 0.253 µM): 0.712
relative viability ([2]; first compound 0.8 µM): 0.674
relative viability ([2]; first compound 2.53 µM): 0.691
relative viability ([2]; first compound 8 µM): 0.707
relative viability ([3]; first compound 0.08 µM): 0.64
relative viability ([3]; first compound 0.253 µM): 0.818
relative viability ([3]; first compound 0.8 µM): 0.778
relative viability ([3]; first compound 2.53 µM): 0.829
relative viability ([3]; first compound 8 µM): 0.866
relative viability ([4]; first compound 0.08 µM): 0.613
relative viability ([4]; first compound 0.253 µM): 0.576
relative viability ([4]; first compound 0.8 µM): 0.549
relative viability ([4]; first compound 2.53 µM): 0.557
relative viability ([4]; first compound 8 µM): 0.62
relative viability ([5]; first compound 0.08 µM): 0.553
relative viability ([5]; first compound 0.253 µM): 0.494
relative viability ([5]; first compound 0.8 µM): 0.462
relative viability ([5]; first compound 2.53 µM): 0.521
relative viability ([5]; first compound 8 µM): 0.45
relative viability ([6]; first compound 0.08 µM): 0.455
relative viability ([6]; first compound 0.253 µM): 0.428
relative viability ([6]; first compound 0.8 µM): 0.453
relative viability ([6]; first compound 2.53 µM): 0.519
relative viability ([6]; first compound 8 µM): 0.613
relative viability ([7]; first compound 0.08 µM): 0.43
relative viability ([7]; first compound 0.253 µM): 0.453
relative viability ([7]; first compound 0.8 µM): 0.432
relative viability ([7]; first compound 2.53 µM): 0.477
relative viability ([7]; first compound 8 µM): 0.454
relative viability ([8]; first compound 0.08 µM): 0.834
relative viability ([8]; first compound 0.253 µM): 0.588
relative viability ([8]; first compound 0.8 µM): 0.933
relative viability ([8]; first compound 2.53 µM): 0.98
relative viability ([8]; first compound 8 µM): 0.856
relative viability ([9]; first compound 0.08 µM): 0.956
relative viability ([9]; first compound 0.253 µM): 0.918
relative viability ([9]; first compound 0.8 µM): 0.911
relative viability ([9]; first compound 2.53 µM): 0.953
relative viability ([9]; first compound 8 µM): 0.983
relative viability ([10]; first compound 0.08 µM): 0.278
relative viability ([10]; first compound 0.253 µM): 0.33
relative viability ([10]; first compound 0.8 µM): 0.342
relative viability ([10]; first compound 2.53 µM): 0.321
relative viability ([10]; first compound 8 µM): 0.275
relative viability ([11]; first compound 0.08 µM): 0.632
relative viability ([11]; first compound 0.253 µM): 0.547
relative viability ([11]; first compound 0.8 µM): 0.555
relative viability ([11]; first compound 2.53 µM): 0.465
relative viability ([11]; first compound 8 µM): 0.549
relative viability ([12]; first compound 0.08 µM): 0.515
relative viability ([12]; first compound 0.253 µM): 0.453
relative viability ([12]; first compound 0.8 µM): 0.5
relative viability ([12]; first compound 2.53 µM): 0.546
relative viability ([12]; first compound 8 µM): 0.546
relative viability ([13]; first compound 0.08 µM): 0.304
relative viability ([13]; first compound 0.253 µM): 0.301
relative viability ([13]; first compound 0.8 µM): 0.294
relative viability ([13]; first compound 2.53 µM): 0.333
relative viability ([13]; first compound 8 µM): 0.325
relative viability ([14]; first compound 0.08 µM): 0.501
relative viability ([14]; first compound 0.253 µM): 0.489
relative viability ([14]; first compound 0.8 µM): 0.516
relative viability ([14]; first compound 2.53 µM): 0.556
relative viability ([14]; first compound 8 µM): 0.58
relative viability ([15]; first compound 0.08 µM): 0.442
relative viability ([15]; first compound 0.253 µM): 0.374
relative viability ([15]; first compound 0.8 µM): 0.327
relative viability ([15]; first compound 2.53 µM): 0.436
relative viability ([15]; first compound 8 µM): 0.412
relative viability ([16]; first compound 0.08 µM): 0.37
relative viability ([16]; first compound 0.253 µM): 0.363
relative viability ([16]; first compound 0.8 µM): 0.392
relative viability ([16]; first compound 2.53 µM): 0.442
relative viability ([16]; first compound 8 µM): 0.508
relative viability ([17]; first compound 0.08 µM): 0.555
relative viability ([17]; first compound 0.253 µM): 0.52
relative viability ([17]; first compound 0.8 µM): 0.499
relative viability ([17]; first compound 2.53 µM): 0.371
relative viability ([17]; first compound 8 µM): 0.384
relative viability ([18]; first compound 0.08 µM): 0.208
relative viability ([18]; first compound 0.253 µM): 0.255
relative viability ([18]; first compound 0.8 µM): 0.234
relative viability ([18]; first compound 2.53 µM): 0.236
relative viability ([18]; first compound 8 µM): 0.241
relative viability ([19]; first compound 0.08 µM): 0.651
relative viability ([19]; first compound 0.253 µM): 0.589
relative viability ([19]; first compound 0.8 µM): 0.574
relative viability ([19]; first compound 2.53 µM): 0.594
relative viability ([19]; first compound 8 µM): 0.559
relative viability ([20]; first compound 0.08 µM): 0.309
relative viability ([20]; first compound 0.253 µM): 0.362
relative viability ([20]; first compound 0.8 µM): 0.33
relative viability ([20]; first compound 2.53 µM): 0.32
relative viability ([20]; first compound 8 µM): 0.318
relative viability ([21]; first compound 0.08 µM): 0.229
relative viability ([21]; first compound 0.253 µM): 0.273
relative viability ([21]; first compound 0.8 µM): 0.196
relative viability ([21]; first compound 2.53 µM): 0.247
relative viability ([21]; first compound 8 µM): 0.284
relative viability ([22]; first compound 0.08 µM): 1.01
relative viability ([22]; first compound 0.253 µM): 0.983
relative viability ([22]; first compound 0.8 µM): 0.843
relative viability ([22]; first compound 2.53 µM): 0.935
relative viability ([22]; first compound 8 µM): 0.919
relative viability ([23]; first compound 0.08 µM): 0.71
relative viability ([23]; first compound 0.253 µM): 0.686
relative viability ([23]; first compound 0.8 µM): 0.695
relative viability ([23]; first compound 2.53 µM): 0.69
relative viability ([23]; first compound 8 µM): 0.669
